Data: the NIST ThermoML archive (doi:10.1016/j.fluid.2008.04.021)
± gives the expanded uncertainty stated by the source.

Assay: excess molar enthalpy (molar enthalpy of mixing); xn = mol fraction of the nth substance listed
Conditions: Liquid

Structure (SMILES) | excess molar enthalpy (298.15 K, x2 = 0) [kcal/mol] | excess molar enthalpy (298.15 K, x2 = 0.05) [kcal/mol] | excess molar enthalpy (298.15 K, x2 = 0.1) [kcal/mol] | excess molar enthalpy (298.15 K, x2 = 0.15) [kcal/mol] | excess molar enthalpy (298.15 K, x2 = 0.2) [kcal/mol] | excess molar enthalpy (298.15 K, x2 = 0.25) [kcal/mol] | excess molar enthalpy (298.15 K, x2 = 0.3) [kcal/mol] | excess molar enthalpy (298.15 K, x2 = 0.35) [kcal/mol] | excess molar enthalpy (298.15 K, x2 = 0.4) [kcal/mol] | excess molar enthalpy (298.15 K, x2 = 0.45) [kcal/mol] | excess molar enthalpy (298.15 K, x2 = 0.5) [kcal/mol] | excess molar enthalpy (298.15 K, x2 = 0.55) [kcal/mol] | excess molar enthalpy (298.15 K, x2 = 0.6) [kcal/mol] | excess molar enthalpy (298.15 K, x2 = 0.65) [kcal/mol] | excess molar enthalpy (298.15 K, x2 = 0.7) [kcal/mol] | excess molar enthalpy (298.15 K, x2 = 0.75) [kcal/mol] | excess molar enthalpy (298.15 K, x2 = 0.8) [kcal/mol] | excess molar enthalpy (298.15 K, x2 = 0.85) [kcal/mol] | excess molar enthalpy (298.15 K, x2 = 0.9) [kcal/mol] | excess molar enthalpy (298.15 K, x1 = 1) [kcal/mol] | further results
CCCCOCC [butyl ethyl ether] + FC(F)(F)C(F)(F)C(F)(F)C(F)(F)C(F)(F)C(F)(F)F | 0 ± 0.000478 | 0.146 ± 0.00335 | 0.259 ± 0.00574 | 0.345 ± 0.00741 | 0.41 ± 0.0086 | 0.459 ± 0.00956 | 0.494 ± 0.0103 | 0.519 ± 0.0108 | 0.536 ± 0.0112 | 0.546 ± 0.0115 | 0.549 ± 0.0115 | 0.546 ± 0.0115 | 0.535 ± 0.0112 | 0.517 ± 0.0108 | 0.489 ± 0.0103 | 0.449 ± 0.00956 | 0.396 ± 0.00837 | 0.327 ± 0.00693 | 0.24 ± 0.00526 | – | excess molar enthalpy (298.15 K, x2 = 0.95): 0.132 ± 0.00311 kcal/mol
CCCCOC [butyl methyl ether] + FC(F)(F)C(F)(F)C(F)(F)C(F)(F)C(F)(F)C(F)(F)F | 0 ± 0.000478 | 0.148 ± 0.00335 | 0.26 ± 0.00574 | 0.344 ± 0.00741 | 0.406 ± 0.0086 | 0.452 ± 0.00956 | 0.486 ± 0.0103 | 0.51 ± 0.0108 | 0.526 ± 0.011 | 0.535 ± 0.0112 | 0.539 ± 0.0112 | 0.535 ± 0.0112 | 0.524 ± 0.011 | 0.505 ± 0.0105 | 0.475 ± 0.01 | 0.434 ± 0.00908 | 0.379 ± 0.00813 | 0.31 ± 0.00669 | 0.224 ± 0.00502 | – | excess molar enthalpy (298.15 K, x2 = 0.95): 0.121 ± 0.00287 kcal/mol
CCOCC [diethyl ether] + FC(F)(F)C(F)(F)C(F)(F)C(F)(F)C(F)(F)C(F)(F)F | – | – | – | – | – | – | – | – | – | – | – | – | – | – | – | – | – | – | – | – | excess molar enthalpy (293.15 K, x2 = 0): 0 ± 0.000478 kcal/mol; excess molar enthalpy (293.15 K, x2 = 0.05): 0.148 ± 0.00335 kcal/mol; excess molar enthalpy (293.15 K, x2 = 0.1): 0.26 ± 0.00574 kcal/mol; excess molar enthalpy (293.15 K, x2 = 0.15): 0.344 ± 0.00741 kcal/mol; excess molar enthalpy (293.15 K, x2 = 0.2): 0.408 ± 0.0086 kcal/mol; excess molar enthalpy (293.15 K, x2 = 0.25): 0.455 ± 0.00956 kcal/mol; excess molar enthalpy (293.15 K, x2 = 0.3): 0.491 ± 0.0103 kcal/mol; excess molar enthalpy (293.15 K, x2 = 0.35): 0.517 ± 0.0108 kcal/mol; excess molar enthalpy (293.15 K, x2 = 0.4): 0.535 ± 0.0112 kcal/mol; excess molar enthalpy (293.15 K, x2 = 0.45): 0.547 ± 0.0115 kcal/mol; excess molar enthalpy (293.15 K, x2 = 0.5): 0.551 ± 0.0115 kcal/mol; excess molar enthalpy (293.15 K, x2 = 0.55): 0.546 ± 0.0115 kcal/mol; excess molar enthalpy (293.15 K, x2 = 0.6): 0.533 ± 0.0112 kcal/mol; excess molar enthalpy (293.15 K, x2 = 0.65): 0.51 ± 0.0108 kcal/mol; excess molar enthalpy (293.15 K, x2 = 0.7): 0.475 ± 0.01 kcal/mol; excess molar enthalpy (293.15 K, x2 = 0.75): 0.427 ± 0.00908 kcal/mol; excess molar enthalpy (293.15 K, x2 = 0.8): 0.366 ± 0.00789 kcal/mol; excess molar enthalpy (293.15 K, x2 = 0.85): 0.292 ± 0.00621 kcal/mol; excess molar enthalpy (293.15 K, x2 = 0.9): 0.205 ± 0.00454 kcal/mol; excess molar enthalpy (293.15 K, x2 = 0.95): 0.107 ± 0.00263 kcal/mol
CCCOCCC [dipropyl ether] + FC(F)(F)C(F)(F)C(F)(F)C(F)(F)C(F)(F)C(F)(F)F | 0 ± 0.000478 | 0.137 ± 0.00311 | 0.249 ± 0.0055 | 0.34 ± 0.00717 | 0.413 ± 0.00884 | 0.47 ± 0.0098 | 0.514 ± 0.0108 | 0.547 ± 0.0115 | 0.569 ± 0.012 | 0.582 ± 0.0122 | 0.586 ± 0.0122 | 0.582 ± 0.0122 | 0.569 ± 0.012 | 0.546 ± 0.0115 | 0.514 ± 0.0108 | 0.469 ± 0.0098 | 0.411 ± 0.0086 | 0.338 ± 0.00717 | 0.247 ± 0.0055 | – | excess molar enthalpy (298.15 K, x2 = 0.95): 0.135 ± 0.00311 kcal/mol
FC(F)(F)C(F)(F)C(F)(F)C(F)(F)C(F)(F)C(F)(F)F [perfluorohexane] + CCCCOC | – | – | – | – | – | – | – | – | – | – | – | – | – | – | – | – | – | – | – | 0 ± 0.000478 | –
FC(F)(F)C(F)(F)C(F)(F)C(F)(F)C(F)(F)C(F)(F)F [perfluorohexane] + CCCCOCC | – | – | – | – | – | – | – | – | – | – | – | – | – | – | – | – | – | – | – | 0 ± 0.000478 | –
FC(F)(F)C(F)(F)C(F)(F)C(F)(F)C(F)(F)C(F)(F)F [perfluorohexane] + CCCCOCCCC | – | – | – | – | – | – | – | – | – | – | – | – | – | – | – | – | – | – | – | 0 ± 0.000478 | excess molar enthalpy (298.15 K, x1 = 0.05): 0.144 ± 0.00335 kcal/mol; excess molar enthalpy (298.15 K, x1 = 0.1): 0.255 ± 0.0055 kcal/mol; excess molar enthalpy (298.15 K, x1 = 0.15): 0.338 ± 0.00717 kcal/mol; excess molar enthalpy (298.15 K, x1 = 0.2): 0.399 ± 0.00837 kcal/mol; excess molar enthalpy (298.15 K, x1 = 0.25): 0.443 ± 0.00932 kcal/mol; excess molar enthalpy (298.15 K, x1 = 0.3): 0.473 ± 0.01 kcal/mol; excess molar enthalpy (298.15 K, x1 = 0.35): 0.494 ± 0.0103 kcal/mol; excess molar enthalpy (298.15 K, x1 = 0.4): 0.506 ± 0.0105 kcal/mol; excess molar enthalpy (298.15 K, x1 = 0.45): 0.513 ± 0.0108 kcal/mol; excess molar enthalpy (298.15 K, x1 = 0.5): 0.515 ± 0.0108 kcal/mol; excess molar enthalpy (298.15 K, x1 = 0.55): 0.513 ± 0.0108 kcal/mol; excess molar enthalpy (298.15 K, x1 = 0.6): 0.506 ± 0.0105 kcal/mol; excess molar enthalpy (298.15 K, x1 = 0.65): 0.494 ± 0.0103 kcal/mol; excess molar enthalpy (298.15 K, x1 = 0.7): 0.474 ± 0.01 kcal/mol; excess molar enthalpy (298.15 K, x1 = 0.75): 0.444 ± 0.00932 kcal/mol; excess molar enthalpy (298.15 K, x1 = 0.8): 0.401 ± 0.0086 kcal/mol; excess molar enthalpy (298.15 K, x1 = 0.85): 0.34 ± 0.00717 kcal/mol; excess molar enthalpy (298.15 K, x1 = 0.9): 0.257 ± 0.0055 kcal/mol; excess molar enthalpy (298.15 K, x1 = 0.95): 0.146 ± 0.00335 kcal/mol
FC(F)(F)C(F)(F)C(F)(F)C(F)(F)C(F)(F)C(F)(F)F [perfluorohexane] + CCCOCCC | – | – | – | – | – | – | – | – | – | – | – | – | – | – | – | – | – | – | – | 0 ± 0.000478 | –
FC(F)(F)C(F)(F)C(F)(F)C(F)(F)C(F)(F)C(F)(F)F [perfluorohexane] + CCOCC | – | – | – | – | – | – | – | – | – | – | – | – | – | – | – | – | – | – | – | – | excess molar enthalpy (293.15 K, x1 = 1): 0 ± 0.000478 kcal/mol
